The subject of this test is OCI-Ly10. As to the kind of experiment: Inhibition of growth of OCI-Ly10 (ABC-DLBCL cells). Format: cell-based. The conditions noted are these: Homo sapiens. From the text:
DLBCL cells of the ABC subtype, such as OCI-Ly10, have chronic active BCR signaling and are very sensitive to the Btk inhibitor described herein. […] In addition, induction of apoptosis, as shown by capsase activation, Annexin-V flow cytometry and increase in sub-GO fraction is observed in OCILy 10. Both sensitive and resistant cells express Btk at similar levels, and the active site of Btk is fully occupied by the inhibitor in both as shown using a fluorescently labeled affinity probe. […] The activity of Btk inhibitors in the cell lines studied herein are also characterized by comparing signal transduction profiles (Btk, PLCγ, ERK, NF-kB, AKT), cytokine secretion profiles and mRNA expression profiles, both with and without BCR stimulation, and observed significant differences in these profiles that lead to clinical biomarkers that identify the most sensitive patient populations to Btk inhibitor treatment. See U.S. Pat. No. 7,711,492 and Staudt et al., Nature, Vol. 463, Jan. 7, 2010, pp. 88-92, the contents of which are incorporated by reference in their entirety.

pEC50: −log10 of the molar value. Like-named read-outs stand apart in the source and are kept apart here.

What is called pEC50 is the negative decadic logarithm of the EC50, by convention in mol/L.

For `C=CC(=O)N1CCC[C@@H](n2nc(-c3ccc(Oc4ccccc4)cc3)c3c(N)ncnc32)C1` [Compound 1, 1-((R)-3-(4-amino-3-(4-phenoxyphenyl)-1H-pyrazolo[3,4-d]pyrimidin-1-yl)piperidin-1-yl)prop-2-en-1-one], the pEC50 by setting is: (read-out: EC50 1 hour pulse, growth of OCI-Ly10, 1 hour pulse) 7.30; (growth of OCI-Ly10, continuous exposure, read-out: EC50 continuous exposure) 8.00.

Source of the values: patent US10010507B1, “Pharmaceutical formulations of a bruton's tyrosine kinase inhibitor” (Pharmacyclics LLC, priority 2015, dated 2018).
